The experiment relates to fusion protein ACP-FRB. Put plainly: in vitro protein trimer formation with ACP-FRB, ACP synthase, SDS-PAGE. In kind it is biochemical. The conditions noted are these: FRB protein fused to ACP tag, ACP synthase enzyme, overnight incubation at 4° C., coomassie stained. On the procedure:
A solution of maleimide derivative (34) (1.4 mg, 1 eq, 1.3 μmol) in DMF (0.7 mL) is added to a solution of CoA-SH (3.5 mg, 3.3 eq, 4.3 μmol) in Tris buffer (pH 7.5, 100 μL). The reaction mixture is shaken overnight at 31° C. The solvent is removed under vacuum and the crude mixture is purified via preparative HPLC. The structural ability of compound (35) to trigger the formation of a protein trimer is confirmed by in vitro experiments using the fusion protein ACP-FRB. 12.5 μL of a 48.5 μM solution of FRB protein fused to the ACP tag (Covalys) is mixed with 0.5 μL of a 0.2 mM solution of compound (35), 2.5 μL of a solution of [500 mM Tris-HCl pH 7.5; 1500 mM NaCl; 100 mM MgCl2], 9.5 μL of double distilled water and 0.5 μl of ACP synthase enzyme (available from Covalys). Following overnight incubation at 4° C., 5 μL of a solution of 100 mM Tris-HCl pH 6.8; 2% SDS; 35% glycerol; 10 mM EDTA; 20 mM DTT is added. The mixture is boiled for 5 min at 95° C. After cooling to rt, 30 μL of this solution is loaded on a 4-20% linear gradient SDS-PAGE gel. After electrophoresis, the proteins are coomassie stained in gel to visualize protein trimer.

SMILES strings stand for the structures.

For `CCN(CC)c1ccc2nc3c4cc(OCC(=O)NC(COCCC(=O)NCCN5C(=O)CC(SCCNC(=O)CCNC(=O)[C@H](O)C(C)(C)COP(=O)([O-])OP(=O)([O-])OC[C@H]6O[C@@H](n7cnc8c(N)ncnc87)C(O)C6OP(=O)(O)O)C5=O)(COCCC(=O)NCCN5C(=O)CC(SCCNC(=O)CCNC(=O)[C@H](O)C(C)(C)COP(=O)([O-])OP(=O)([O-])OC[C@H]6O[C@@H](n7cnc8c(N)ncnc87)C(O)C6OP(=O)(O)O)C5=O)COCCC(=O)NCCN5C(=O)CC(SCCNC(=O)CCNC(=O)[C@H](O)C(C)(C)COP(=O)([O-])OP(=O)([O-])OC[C@H]6O[C@@H](n7cnc8c(N)ncnc87)C(O)C6OP(=O)(O)O)C5=O)ccc4c(=O)cc-3oc2c1.[Na+].[Na+].[Na+].[Na+].[Na+].[Na+]` (stereo partly shown) [Compound 35, N-Tris-{[2-(2-(2-(CoA-S)-succinimido)ethylaminocarbonyl)ethoxy]-methyl}methyl nile red-oxyacetamide], the “structural ability to trigger the formation of a protein trimer” value is given as “confirmed”.

Values taken from patent US20110014216A1, “Drug Transfer Based on Coenzyme A and Acyl Carrier Protein” (COVALYS B[…], priority 2007, published 2011).
